From ChEMBL document CHEMBL1255489, “Low prevalence of fks1 hot spot 1 mutations in a worldwide collection of Candida strains” (2010)
Converted amounts (≈) assume the structure as drawn. Starred links: 1 amine or outer side, 2 acyl side, 3 side chain; linkers in the order of their positions; H or OH if unused. Positions of bridges follow the written chain, without caps; N, C: chain ends. Non-standard residues stand in square brackets, D forms with d. Residues, ends and D or L forms follow the SMILES beside them. *: point of attachment. hTyr(3S-OH,4S-OH,3'-OSO3H) = N[C@H](C(=O)O)[C@H](O)[C@@H](O)c1ccc(O)c(OS(=O)(=O)O)c1; pTerphenylCO(4''-OnC5H11) = CCCCCOc1ccc(-c2ccc(-c3ccc(C(=O)*)cc3)cc2)cc1; Orn(4R-OH,5R-OH) = O=C([C@H](C[C@@H](O)[C@@H](O)N[*:3])N[*:1])[*:2]; hTyr(3S-OH,4S-OH) = N[C@H](C(=O)O)[C@H](O)[C@@H](O)c1ccc(O)cc1; Pro(3S-OH,4S-Me) = C[C@H]1CN[C@H](C(=O)O)[C@H]1O; X1 = CCCCCOc1ccc(-c2cc(-c3ccc(C(=O)*)cc3)no2)cc1; Gln(3R-OH) = NC(=O)C[C@@H](O)[C@H](N)C(=O)O; Hyp = O=C(O)[C@@H]1C[C@@H](O)CN1

Key:
Type in all cases: functional
Candida albicans [1] = assay: Antifungal activity against Candida albicans isolate 4700 expressing fks1 F641Y mutant after 24 to 48 hrs by broth microdilution method
Candida tropicalis [2] = assay: Antifungal activity against Candida tropicalis isolate 4748 expressing fks1 F641S mutant after 24 to 48 hrs by broth microdilution method
Candida tropicalis [3] = assay: Antifungal activity against Candida tropicalis isolate 4780 expressing fks1 F641S mutant after 24 to 48 hrs by broth microdilution method
Nakaseomyces glabratus [4] = assay: Antifungal activity against Candida glabrata isolate 4708 expressing fks1 S645P mutant after 24 to 48 hrs by broth microdilution method
Nakaseomyces glabratus [5] = assay: Antifungal activity against Candida glabrata isolate 4707 expressing fks2 S645P mutant after 24 to 48 hrs by broth microdilution method
Nakaseomyces glabratus [6] = assay: Antifungal activity against Candida glabrata isolate 4690 expressing fks2 L644W mutant after 24 to 48 hrs by broth microdilution method
Nakaseomyces glabratus [7] = assay: Antifungal activity against Candida glabrata isolate 4720 expressing fks2 S645P mutant after 24 to 48 hrs by broth microdilution method
Candida albicans [8] = assay: Antifungal activity against Candida albicans expressing fks1 F641S mutant after 24 to 48 hrs by broth microdilution method
Candida albicans [9] = assay: Antifungal activity against Candida albicans after 24 to 48 hrs by broth microdilution method
Nakaseomyces glabratus [10] = assay: Antifungal activity against Candida glabrata after 24 to 48 hrs by broth microdilution method
Pichia kudriavzevii [11] = assay: Antifungal activity against Candida krusei after 24 to 48 hrs by broth microdilution method
Candida tropicalis [12] = assay: Antifungal activity against Candida tropicalis expressing fks1 L644W mutant by EUCAST method
Pichia kudriavzevii [13] = assay: Antifungal activity against Candida krusei ATCC 6258 expressing fks1 L644W mutant by EUCAST method
Candida = assay: Antifungal activity against Candida species after 24 to 48 hrs by broth microdilution method

Work on `CCCCCOc1ccc(-c2cc(-c3ccc(C(=O)N[C@H]4C[C@@H](O)[C@@H](O)NC(=O)[C@@H]5[C@@H](O)[C@@H](C)CN5C(=O)[C@H]([C@H](O)CC(N)=O)NC(=O)[C@H]([C@H](O)[C@@H](O)c5ccc(O)c(OS(=O)(=O)O)c5)NC(=O)[C@@H]5C[C@@H](O)CN5C(=O)[C@H]([C@@H](C)O)NC4=O)cc3)no2)cc1` [MICAFUNGIN] (X1-[Orn(4R-OH,5R-OH)]T[Hyp][hTyr(3S-OH,4S-OH,3'-OSO3H)][Gln(3R-OH)][Pro(3S-OH,4S-Me)]; lactam 1-C) yielded an MIC (Candida albicans [1]) of 0.25 µg/mL (≈ 0.197 µM), an MIC (Candida tropicalis [2]) of 0.5 µg/mL (≈ 0.394 µM) and an MIC (Candida tropicalis [3]) of 0.5 µg/mL (≈ 0.394 µM). For the same compound, the MIC (Nakaseomyces glabratus [4]) was 4 µg/mL (≈ 3.15 µM), the MIC (Nakaseomyces glabratus [5]) was 2 µg/mL (≈ 1.57 µM) and the MIC (Nakaseomyces glabratus [6]) was 0.06 µg/mL (≈ 0.0472 µM). For the same compound, the MIC (Nakaseomyces glabratus [7]) was 4 µg/mL (≈ 3.15 µM), the MIC (Candida albicans [8]) was 0.5 µg/mL (≈ 0.394 µM) and the MIC (Candida albicans [9]) was at most 0.06 µg/mL. It also gave an MIC (Nakaseomyces glabratus [10]) of at most 0.06 µg/mL.
With `CC[C@H](C)C[C@H](C)CCCCCCCCC(=O)N[C@H]1C[C@@H](O)[C@@H](NCCN)NC(=O)[C@@H]2[C@@H](O)CCN2C(=O)[C@H]([C@H](O)CCN)NC(=O)[C@H]([C@H](O)[C@@H](O)c2ccc(O)cc2)NC(=O)[C@@H]2C[C@@H](O)CN2C(=O)[C@H]([C@@H](C)O)NC1=O` [CASPOFUNGIN] the MIC (Candida albicans [1]) was 1 µg/mL (≈ 0.915 µM), the MIC (Candida tropicalis [2]) was 4 µg/mL (≈ 3.66 µM) and the MIC (Candida tropicalis [3]) was 4 µg/mL (≈ 3.66 µM). For the same compound, the MIC (Nakaseomyces glabratus [4]) was at least 8 µg/mL, the MIC (Nakaseomyces glabratus [5]) was 8 µg/mL (≈ 7.32 µM) and the MIC (Nakaseomyces glabratus [6]) was 0.25 µg/mL (≈ 0.229 µM). The MIC (Nakaseomyces glabratus [7]) was at least 8 µg/mL, the MIC (Candida albicans [8]) was 2 µg/mL (≈ 1.83 µM) and the MIC (Pichia kudriavzevii [11]) was 1 µg/mL (≈ 0.915 µM). For the same compound, the MIC (Candida tropicalis [12]) was 1 µg/mL (≈ 0.915 µM), the MIC (Pichia kudriavzevii [13]) was 8 µg/mL (≈ 7.32 µM) and the MIC (Candida albicans [9]) was at most 0.06 µg/mL. The MIC (Nakaseomyces glabratus [10]) was at most 0.06 µg/mL and the MIC (Candida) was at most 0.008 µg/mL.
In the case of `CCCCCOc1ccc(-c2ccc(-c3ccc(C(=O)N[C@H]4C[C@@H](O)[C@@H](O)NC(=O)[C@@H]5[C@@H](O)[C@@H](C)CN5C(=O)[C@H]([C@@H](C)O)NC(=O)[C@H]([C@H](O)[C@@H](O)c5ccc(O)cc5)NC(=O)[C@@H]5C[C@@H](O)CN5C(=O)[C@H]([C@@H](C)O)NC4=O)cc3)cc2)cc1` [ANIDULAFUNGIN] ({pTerphenylCO(4''-OnC5H11)}-[Orn(4R-OH,5R-OH)]T[Hyp][hTyr(3S-OH,4S-OH)]T[Pro(3S-OH,4S-Me)]; lactam 1-C), the MIC (Candida albicans [1]) is reported as 0.12 µg/mL (≈ 0.105 µM), the MIC (Candida tropicalis [2]) is reported as 1 µg/mL (≈ 0.877 µM) and the MIC (Candida tropicalis [3]) is reported as 1 µg/mL (≈ 0.877 µM). For the same compound, the MIC (Nakaseomyces glabratus [4]) was 4 µg/mL (≈ 3.51 µM), the MIC (Nakaseomyces glabratus [5]) was 4 µg/mL (≈ 3.51 µM) and the MIC (Nakaseomyces glabratus [6]) was 0.12 µg/mL (≈ 0.105 µM). For the same compound, the MIC (Nakaseomyces glabratus [7]) was 4 µg/mL (≈ 3.51 µM), the MIC (Candida albicans [8]) was 0.12 µg/mL (≈ 0.105 µM) and the MIC (Pichia kudriavzevii [11]) was 0.06 µg/mL (≈ 0.0526 µM). It also gave an MIC (Candida albicans [9]) of at most 0.12 µg/mL and an MIC (Nakaseomyces glabratus [10]) of at most 0.12 µg/mL.
